Assays:
[1] = tested on: SIPs; test: In vitro reprogramming of SIPs, flow cytometry for hematopoietic surface markers; assay type: cell-based, human; details: the two small molecules alone, without RUNX1C
From the text: Heparinized human BM was obtained from healthy donors after informed consent, according to guidelines from the Office of Human Research Protection at the University of Nevada at Reno, Wake Forest Health Sciences, or from commercially available sources (AllCells, LLC, Alameda Calif.). Low density BM mononuclear cells (BMNC) were separated by Ficoll density gradient (1.077 g/ml Sigma, St. Louis, Mo.) and washed twice in Iscove's modified Dulbecco's medium (Invitrogen, Carlsbad, Calif.). Stro-1+ MSC were then isolated using anti-Stro-1 antibody (R&D Systems, Minneapolis, Minn.) and magnetic bead cell sorting (Miltenyi Biotec, Inc., Auburn, Calif.) according to manufacturer's guidelines. Stro-1+ cells were then cultured at low density in 0.02% gelatin (Sigma, St Louis, Mo.) coated flasks using Mesenchymal Stem Cell Growth Medium (MSCGM™, Lonza, Walkersville, Md.) in a humidified 37° C. incubator at 5% CO2.
BM-MSC were transduced on 6-well plates with Oct4- or RUNX1C-encoding lentiviral vector, alone or in combination (or an eGFP-encoding lentiviral vector as a control), at a multiplicity of infection (MOI) of 50 for each vector. Twenty four hours after transduction, the vector-containing media was removed and replaced with fresh MSCGM™ (Lonza). […]

[2] = tested on: SIPs; test: Culture conditions for reprogramming of SIPs (data not shown); assay type: cell-based, human; details: the two factors alone, preliminary studies
From the text: Cultures may be performed in defined serum-free media. This will to facilitate clinical grade production of hematopoietic cells. SIPS ([…]) may be plated in 100 mm gelatin-coated culture plates using serum-free TheraPEAK® MSCGM-CD Mesenchymal Stem Cell Medium (Lonza). Sixteen hours later they may be transduced overnight with the lentivector encoding RUNX1c at an MOI of ˜10. A control group may be transduced with an identical lentivector expressing EGFP to judge transduction efficiency (usually ˜80-90%) and to assess the precision of the cumate “switch”. The following day, the medium may be changed to DMEM/F12/+20% KOSR/1×NEAA/0.1 mM 2-ME/containing rhFGF2 (20 ng/ml) and rhIGFII (30 ng/ml). […] At the same time, media may be supplemented with cumate to turn on expression of RUNX1c (or EGFP) and with VPA (1 mM final concentration) and Bix-01294 (2 μM final concentration).
In order to facilitate differentiation of the HSC into all lineages or into hematopoietic cells having good engraftment potential, additional growth factors, such as TPO and BMP4, may be incorporated into the culture medium. […]

| Compound | expression of CD41 or CD34 [1] | reprogramming of SIPs to the hematopoietic lineage [2] |
| --- | --- | --- |
| CCCC(CCC)C(=O)O [VPA, valproic acid] | did not induce significant expression |  |
| COc1cc2nc(N3CCCN(C)CC3)nc(NC3CCN(Cc4ccccc4)CC3)c2cc1OC [Bix-01294] | did not induce significant expression |  |
| rhFGF2: recombinant human FGF2 medium supplement |  | some ability to support some degree of reprogramming |
| rhIGFII: recombinant human IGF-II medium supplement |  | some ability to support some degree of reprogramming |

Reference: US20160130554A1, “Reprogramming Mesenchymal Stromal Cells Into Hematopoietic Cells” (Wake Forest University Health Sciences, priority 2014, published 2016)
